For data set [1], the target named is Her2 (Homo sapiens, UniProt P04626). Briefly: In vitro protein kinase inhibition, Her2.
In data set [2] the test system is Bax. Briefly: Apoptotic protein level by ELISA, Bax. The class given is cell-based, human. As to conditions: HepG2 cells; for Protein Expression Bax: ELISA, control 71.075 ± 2.762, mean ± SD of triplicate; for Protein Expression Bax (Folds): relative to control (1). On the procedure: (§1) To further elucidate the mechanism by which compound 6i induces cell death, the expression levels of key apoptotic proteins were assessed in the HepG2 cell line. […] Specifically, the levels of the pro-apoptotic proteins caspase-3 and Bax were markedly higher in the compound 6i-treated group compared with the control. […] Additional studies are warranted to elucidate the detailed molecular mechanisms underlying the apoptosis-inducing effects of compound 6i and to assess its therapeutic potential in relevant in vivo models.
(§2) Apoptotic protein levels for compound 6i were determined using an ELISA technique for caspase-3, BAX, and Bcl-2, applying a previously reported method.
For orientation: An ELISA detects its analyte on a solid surface through an enzyme-linked reagent.

In data set [3] the test system is caspase-3. Briefly: Apoptotic protein level by ELISA, caspase-3. It counts as cell-based, human. As to conditions: HepG2 cells; for Protein Expression Caspase-3: ELISA, control 99.904 ± 3.88, mean ± SD of triplicate. As for the experimental part:
as §1, §2

The subject of data set [4] is HepG2 (hepatocellular carcinoma cell line). Kind of data set: MTT in vitro cytotoxicity, HepG2. The class given is cell-based, human. Particulars: for IC50: Homo sapiens, HepG2, MTT, mean ± SD of triplicate; for SI (Selectivity Index) HepG2: IC50 of WI-38 / IC50 of HepG2.
Data set [5] has as its system cancer cell lines (HCT-116, HepG2, MCF-7). Kind of data set: MTT in vitro cytotoxicity, summary across the cancer cell line panel. The class given is cell-based. Particulars: Homo sapiens; summary over HCT-116, HepG2, MCF-7; read-out: IC50 values across the tested cancer cell lines. On the procedure:
The cytotoxic activities of compounds 6a-l were assessed using a standard MTT method, which was performed across three different cancer cell line models, namely human colon cancer (HCT-116), hepatocellular carcinoma (HepG2), mammary gland cancer (MCF-7), and normal (WI-38) cell lines. […] […]. Substitution at the 4-position, as in the case of compounds 6d, 6g, and 6j, also seems beneficial, with fluoro (6j) showing the best results. […]. Overall, the cytotoxicity data provide valuable insights into the structure–activity relationships of the synthesized compounds and can guide further optimization efforts to develop potential anticancer agents with improved potency and selectivity.
. The SI values represent the ratio of the IC50 values for the normal WI-38 cell line compared with the respective cancer cell lines, with higher SI values indicating greater selectivity for the cancer cells over normal cells. […]. The cytotoxic potential of compounds 6a-l was evaluated against a panel of cancer cell lines, including HCT-116, HepG2, and MCF-7, as well as a normal cell line, WI-38, using the reported methodology. The cell lines utilized in this study were obtained from the American Type Culture Collection (ATCC) through the Holding Company for Biological Products and Vaccines (VACSERA) in Cairo, Egypt. These included: 1. A human colon cancer cell line (HCT-116); 2. Hepatocellular carcinoma (HepG2)—a liver cancer cell line; 3. Mammary gland breast cancer (MCF-7); and 4. A human lung fibroblast (WI-38)—a normal cell line.

For data set [6], the target named is CDK2 (Homo sapiens, UniProt P24941). Kind of data set: In vitro protein kinase inhibition, CDK2.
Data set [7] in a line: MTT in vitro cytotoxicity, normal WI-38. The class given is cell-based. Particulars: human, WI-38 normal lung fibroblast cells, normal cell line, mean ± SD of triplicate.
Data set [8] has as its system HepG2 cells. Kind of data set: Cell cycle analysis (propidium iodide flow cytometry). It counts as cell-based, human. The text has this:
Following the treatment, the cells were stained with propidium iodide and analyzed using flow cytometry to determine the cell cycle phase distribution. […] The quantitative data further substantiated this observation. […] It led to a marked accumulation of cells in the G1 phase, accompanied by a concomitant reduction in the proportion of cells in the S and G2/M phases. The cell cycle arrest effect observed with compound 6i may be a key mechanistic aspect contributing to its anticancer potential. The observed cell cycle arrest at the G1 phase is a common mechanism of action for many anti-cancer agents, as it can prevent cell division and proliferation, ultimately leading to cell cycle arrest and potentially inducing apoptosis or other forms of cell death.
The cell cycle distribution index (CDI) is a metric that quantifies the rate of cell proliferation, calculated as CDI = (G2/M + S)/[…], where the values represent the percentages of cells in each phase. In this study, the CDI values for the control and compound 6i-treated HepG2 cells were 0.91 and 0.39, respectively. […] Compound 6i was further evaluated for apoptosis analysis in HepG2 cell lines.
For orientation: In flow cytometry, cells or beads pass a laser one at a time.

For data set [9], the target named is EGFR (Homo sapiens, UniProt P00533). Briefly: In vitro protein kinase inhibition, EGFR.
In data set [10] the test system is Bcl-2. Kind of data set: Apoptotic protein level by ELISA, Bcl-2. The class given is cell-based, human. Particulars: HepG2 cells; for Protein Expression Bcl-2: ELISA, control 15.668 ± 0.53, mean ± SD of triplicate.
Data set [11] addresses mTOR (Homo sapiens, UniProt P42345). Briefly: In vitro enzyme inhibition, mTOR.
Data set [12] concerns HCT-116 (human colon cancer cell line). Briefly: MTT in vitro cytotoxicity, HCT-116. The class given is cell-based. Particulars: for IC50: Homo sapiens, HCT-116, MTT, mean ± SD of triplicate; for SI (Selectivity Index) HCT-116: IC50 of WI-38 / IC50 of HCT-116.
Data set [13] has as its target T1, AURKC (Homo sapiens, UniProt Q9UQB9).
T1 sequence (Q9UQB9 1-309): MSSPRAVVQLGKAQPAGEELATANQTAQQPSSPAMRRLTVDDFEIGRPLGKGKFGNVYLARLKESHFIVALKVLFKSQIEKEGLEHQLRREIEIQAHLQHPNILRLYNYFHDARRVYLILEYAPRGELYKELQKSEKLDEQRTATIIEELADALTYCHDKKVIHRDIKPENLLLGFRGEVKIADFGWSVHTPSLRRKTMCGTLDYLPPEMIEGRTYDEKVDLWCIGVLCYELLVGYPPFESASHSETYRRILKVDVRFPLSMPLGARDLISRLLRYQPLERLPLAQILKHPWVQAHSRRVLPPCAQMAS
Briefly: In vitro protein kinase inhibition, AURKC.

The target of data set [14] is HDAC1 (Homo sapiens, UniProt Q13547). Briefly: In vitro enzyme inhibition, HDAC1. It counts as biochemical. As to conditions: mean ± SD of triplicate; read-out: In Vitro Protein Kinase Inhibition IC50 HDAC1.
Data set [15] concerns the target VEGFR2 (Homo sapiens, UniProt P35968). Briefly: In vitro protein kinase inhibition, VEGFR2. It counts as biochemical. Particulars: mean ± SD of triplicate. The text has this: […]. […] […].
Data set [16] deals with MCF-7 (mammary gland breast cancer cell line). Briefly: MTT in vitro cytotoxicity, MCF-7. The class given is cell-based, human. As to conditions: for IC50: Homo sapiens, MCF7, MTT, mean ± SD of triplicate; for SI (Selectivity Index) MCF-7: IC50 of WI-38 / IC50 of MCF-7.
In data set [17] the test system is HepG2 cells. Briefly: Annexin-V/propidium iodide double staining apoptosis assay. It counts as cell-based, human. As to conditions: HepG2 cells treated at IC50 concentration for 24 h. On the procedure:
To investigate the mode of cell death induced by the synthesized compound 6i, flow cytometry analysis was performed. […] Following the treatment, the cells were double-stained with Annexin V and propidium iodide (PI) to assess the levels of apoptosis and necrosis. The data presented in Table 4 reveal a significant decline in the percentage of viable cells in the compound 6i-treated group (63.93%) compared with the untreated control group (97.58%). […] Additionally, in the late stages of apoptosis, the percentage of apoptotic cells rose from 0.21% in the control group to 9.98% in the compound 6i-treated group. […] The apoptosis levels in the control HepG2 cell lines and the cells treated with compound 6i are shown in the graphical representation provided in Figure 3.
The apoptosis effect of compound 6i was studied using a previously reported method.

This is an account of results in PMC11279404, “Discovery of 1H-benzo[d]imidazole-(halogenated)Benzylidenebenzohydrazide Hybrids as Potential Multi-Kinase Inhibitors” (Pharmaceuticals, 2024).

SMILES strings stand for the structures. Some results are limits rather than exact numbers.

As usually defined, the IC50 is the midpoint of a concentration-inhibition curve. In general, melting point refers to the temperature of the solid-liquid transition.

EGFR, sequence (P00533 25-1210): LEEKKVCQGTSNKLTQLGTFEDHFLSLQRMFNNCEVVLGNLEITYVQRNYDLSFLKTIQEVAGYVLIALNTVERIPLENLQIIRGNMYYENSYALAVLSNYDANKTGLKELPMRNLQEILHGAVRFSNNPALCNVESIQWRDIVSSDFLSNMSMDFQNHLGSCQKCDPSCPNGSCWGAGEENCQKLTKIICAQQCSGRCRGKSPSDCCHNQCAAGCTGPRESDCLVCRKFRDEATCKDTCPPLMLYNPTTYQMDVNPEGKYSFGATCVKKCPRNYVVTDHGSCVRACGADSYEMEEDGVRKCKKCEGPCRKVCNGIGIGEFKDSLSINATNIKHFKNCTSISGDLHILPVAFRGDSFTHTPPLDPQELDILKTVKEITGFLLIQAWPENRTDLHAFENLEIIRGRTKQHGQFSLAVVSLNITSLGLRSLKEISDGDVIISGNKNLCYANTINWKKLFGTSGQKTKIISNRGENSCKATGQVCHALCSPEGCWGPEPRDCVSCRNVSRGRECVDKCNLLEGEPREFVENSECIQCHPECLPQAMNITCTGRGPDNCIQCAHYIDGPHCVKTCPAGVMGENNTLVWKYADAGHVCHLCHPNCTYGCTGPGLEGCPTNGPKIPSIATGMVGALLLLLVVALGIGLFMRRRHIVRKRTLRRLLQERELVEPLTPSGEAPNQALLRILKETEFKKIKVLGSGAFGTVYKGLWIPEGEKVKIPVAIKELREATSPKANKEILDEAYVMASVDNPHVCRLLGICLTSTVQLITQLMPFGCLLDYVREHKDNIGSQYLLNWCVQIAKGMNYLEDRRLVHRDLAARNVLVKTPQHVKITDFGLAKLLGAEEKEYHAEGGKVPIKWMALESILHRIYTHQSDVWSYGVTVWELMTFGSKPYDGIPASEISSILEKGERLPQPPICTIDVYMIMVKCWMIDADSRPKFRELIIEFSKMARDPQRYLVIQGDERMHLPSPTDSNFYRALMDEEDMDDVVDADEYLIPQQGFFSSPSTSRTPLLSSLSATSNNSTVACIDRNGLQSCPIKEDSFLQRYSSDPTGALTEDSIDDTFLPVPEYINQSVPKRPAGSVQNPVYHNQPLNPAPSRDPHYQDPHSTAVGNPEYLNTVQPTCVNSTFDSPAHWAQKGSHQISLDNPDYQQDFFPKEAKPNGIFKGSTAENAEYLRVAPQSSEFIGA
HDAC1, sequence (Q13547 whole entry): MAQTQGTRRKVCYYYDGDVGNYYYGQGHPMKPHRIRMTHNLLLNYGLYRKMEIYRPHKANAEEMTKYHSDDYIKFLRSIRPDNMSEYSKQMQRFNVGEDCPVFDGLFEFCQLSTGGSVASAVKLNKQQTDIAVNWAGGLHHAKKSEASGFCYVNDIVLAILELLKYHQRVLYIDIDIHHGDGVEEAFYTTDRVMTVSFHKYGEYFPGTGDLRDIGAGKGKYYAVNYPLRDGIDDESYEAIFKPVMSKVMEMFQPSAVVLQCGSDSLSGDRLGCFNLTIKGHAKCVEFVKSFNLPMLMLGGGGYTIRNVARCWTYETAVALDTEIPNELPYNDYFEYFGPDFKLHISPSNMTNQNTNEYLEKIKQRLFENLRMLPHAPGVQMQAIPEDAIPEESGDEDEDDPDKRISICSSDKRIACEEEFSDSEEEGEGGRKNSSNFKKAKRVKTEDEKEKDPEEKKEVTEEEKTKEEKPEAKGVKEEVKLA
Her2, sequence (P04626 23-1255): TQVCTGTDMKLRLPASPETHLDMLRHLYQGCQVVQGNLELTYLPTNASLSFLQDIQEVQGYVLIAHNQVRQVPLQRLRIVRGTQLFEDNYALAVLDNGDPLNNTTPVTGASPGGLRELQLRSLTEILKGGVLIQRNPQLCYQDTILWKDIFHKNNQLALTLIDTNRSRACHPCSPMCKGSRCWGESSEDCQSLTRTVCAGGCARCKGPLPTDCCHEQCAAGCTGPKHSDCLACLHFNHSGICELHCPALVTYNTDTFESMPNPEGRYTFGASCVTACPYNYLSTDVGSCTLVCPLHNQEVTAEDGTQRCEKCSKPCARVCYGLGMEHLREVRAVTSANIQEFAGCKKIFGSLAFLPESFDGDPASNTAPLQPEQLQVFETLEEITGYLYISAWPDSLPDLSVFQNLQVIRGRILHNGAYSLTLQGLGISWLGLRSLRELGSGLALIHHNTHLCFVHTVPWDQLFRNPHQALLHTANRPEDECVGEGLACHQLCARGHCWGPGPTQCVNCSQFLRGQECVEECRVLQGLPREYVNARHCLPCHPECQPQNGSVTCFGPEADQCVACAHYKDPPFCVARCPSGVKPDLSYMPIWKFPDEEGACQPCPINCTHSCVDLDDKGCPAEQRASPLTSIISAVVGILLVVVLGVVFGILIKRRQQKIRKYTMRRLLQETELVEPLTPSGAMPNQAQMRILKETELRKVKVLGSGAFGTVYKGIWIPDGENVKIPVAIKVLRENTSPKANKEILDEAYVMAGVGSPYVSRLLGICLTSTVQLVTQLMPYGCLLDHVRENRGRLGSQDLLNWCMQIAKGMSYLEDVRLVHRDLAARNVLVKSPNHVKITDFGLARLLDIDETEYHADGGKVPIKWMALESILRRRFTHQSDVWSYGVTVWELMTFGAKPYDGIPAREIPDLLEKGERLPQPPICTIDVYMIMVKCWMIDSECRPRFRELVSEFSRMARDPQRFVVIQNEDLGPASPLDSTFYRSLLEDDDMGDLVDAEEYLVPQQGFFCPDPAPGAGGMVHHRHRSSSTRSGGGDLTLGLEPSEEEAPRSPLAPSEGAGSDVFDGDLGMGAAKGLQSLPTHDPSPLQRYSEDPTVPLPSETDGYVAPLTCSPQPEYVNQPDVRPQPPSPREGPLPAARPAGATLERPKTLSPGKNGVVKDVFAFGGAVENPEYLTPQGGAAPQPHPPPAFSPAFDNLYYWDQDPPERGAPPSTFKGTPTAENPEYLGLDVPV
VEGFR2, sequence (P35968 20-1356): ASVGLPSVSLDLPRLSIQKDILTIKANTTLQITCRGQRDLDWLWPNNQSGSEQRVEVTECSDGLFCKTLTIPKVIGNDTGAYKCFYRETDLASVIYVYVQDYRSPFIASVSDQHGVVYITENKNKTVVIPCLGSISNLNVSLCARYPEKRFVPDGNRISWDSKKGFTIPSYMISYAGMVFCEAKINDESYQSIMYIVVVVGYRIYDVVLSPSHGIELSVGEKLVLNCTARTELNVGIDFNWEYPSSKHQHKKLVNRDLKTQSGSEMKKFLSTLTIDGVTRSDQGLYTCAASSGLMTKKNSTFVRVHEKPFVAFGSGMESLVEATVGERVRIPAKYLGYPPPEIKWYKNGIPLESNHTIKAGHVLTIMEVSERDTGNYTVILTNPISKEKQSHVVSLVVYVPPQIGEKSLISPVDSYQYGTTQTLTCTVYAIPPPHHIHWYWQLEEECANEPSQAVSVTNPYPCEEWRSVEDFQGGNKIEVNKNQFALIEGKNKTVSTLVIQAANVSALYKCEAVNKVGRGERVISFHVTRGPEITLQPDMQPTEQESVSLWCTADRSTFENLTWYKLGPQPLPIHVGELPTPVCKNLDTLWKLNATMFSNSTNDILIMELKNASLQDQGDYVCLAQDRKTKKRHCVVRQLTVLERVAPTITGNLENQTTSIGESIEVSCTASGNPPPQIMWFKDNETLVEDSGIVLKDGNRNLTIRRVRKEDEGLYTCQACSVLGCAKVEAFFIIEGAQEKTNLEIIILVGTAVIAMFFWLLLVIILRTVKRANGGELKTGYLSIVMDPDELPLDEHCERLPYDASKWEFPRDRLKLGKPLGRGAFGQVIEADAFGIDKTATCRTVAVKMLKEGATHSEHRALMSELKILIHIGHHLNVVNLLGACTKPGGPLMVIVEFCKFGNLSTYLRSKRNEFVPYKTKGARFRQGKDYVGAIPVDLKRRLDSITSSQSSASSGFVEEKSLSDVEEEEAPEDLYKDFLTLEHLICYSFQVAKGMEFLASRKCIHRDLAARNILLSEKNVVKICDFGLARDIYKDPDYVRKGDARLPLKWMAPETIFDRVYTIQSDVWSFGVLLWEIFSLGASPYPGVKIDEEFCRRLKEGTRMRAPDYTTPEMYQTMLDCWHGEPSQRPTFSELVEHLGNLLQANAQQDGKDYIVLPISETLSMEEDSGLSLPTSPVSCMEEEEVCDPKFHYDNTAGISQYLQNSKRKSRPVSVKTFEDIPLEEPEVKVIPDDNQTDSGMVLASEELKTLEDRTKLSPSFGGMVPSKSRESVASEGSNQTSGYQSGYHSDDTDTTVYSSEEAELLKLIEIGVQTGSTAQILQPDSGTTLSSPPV

For the compound `O=C(N/N=C/c1cccc(F)c1)c1ccc(NCc2nc3ccccc3[nH]2)cc1` [6i, (E)-4-(((1H-benzo[d]imidazol-2-yl)methyl)amino)-N′-(3-fluorobenzylidene)benzohydrazide], the IC50 is 28.3 ± 0.001 nM in [1]; 9390 ± 800 nM in data set [4]; 7820 to 10200 nM in data set [5]; 364 ± 0.011 nM in [6]; 56500 ± 3000 nM in data set [7]; 30.1 ± 0.03 nM in data set [9]. Moreover, the half-maximal inhibitory concentration (IC50) was 152 ± 0.005 nM in [11]; 13400 ± 1200 nM in [12]; 74.5 ± 0.003 nM in [13]; 96.6 ± 0.003 nM in [14]; 172.2 ± 0.006 nM in data set [15]; 11600 ± 900 nM in data set [16]. The “Protein Expression Bax” value in [2] came out at 513.731 ± 19.96 pg/mL. Also, the “Protein Expression Bax (Folds)” value in [2] was 7.22 Folds. Moreover, in [3], the “Protein Expression Caspase-3” value stood at 388.497 ± 15.09 pg/mL. Besides, the “SI (Selectivity Index) HepG2” value in data set [4] is listed as 6.01. The “Cell Cycle Distribution Index (CDI)” value in data set [8] (CDI = (G2/M + S)/(G0-G1), HepG2, IC50 concentration, 24 h, control 0.91) is 0.39. Further, in data set [8] (HepG2 cells treated at IC50 concentration for 24 h, control 12.84), the “DNA Content (%) %G2/M” value turned out to be 2.68%. In addition, the “DNA Content (%) %S” value in data set [8] (HepG2 cells treated at IC50 concentration for 24 h, control 34.77) is recorded as 25.19%. Moreover, in data set [8] (HepG2 cells treated at IC50 concentration for 24 h, control 52.39), the “DNA Content (%) %G0-G1” value amounted to 72.13%. Also, the “Bcl-2 level, fold lower compared with the control” value in [10] is 7.5 fold. Moreover, the “Protein Expression Bcl-2” value in data set [10] stood at 2.073 ± 0.07 pg/mL. Also, the “Protein Expression Bcl-2 (Folds)” value in [10] (relative to control (1)) is listed as 0.132 Folds. The “SI (Selectivity Index) HCT-116” value in data set [12] is listed as 4.20. Moreover, the “SI (Selectivity Index) MCF-7” value in data set [16] is reported as 4.85. The “Apoptosis Late” value in data set [17] (control 0.21) is 9.98%. Also, in data set [17] (control 0.61), the “Apoptosis Early” value is recorded as 22.07%. Further, the Necrosis in [17] (control 1.6) is 4.02%. Moreover, the “Alive Cell (%)” value in [17] (control 97.58) amounted to 63.93%.

For `O=C(N/N=C/c1ccc(F)cc1)c1ccc(NCc2nc3ccccc3[nH]2)cc1` [6j, (E)-4-(((1H-benzo[d]imidazol-2-yl)methyl)amino)-N′-(4-fluorobenzylidene)benzohydrazide], the melting point is 291 °C. The concentration for half-maximal inhibition (IC50) in [1] was determined as 204.7 ± 0.009 nM. For the same compound, in [4], the midpoint of inhibition, the IC50, lay at 14000 ± 1200 nM and the “SI (Selectivity Index) HepG2” value is 2.78. Further, the IC50 in data set [5] is less than 30000 nM. Further, the half-maximal inhibitory concentration (IC50) in data set [6] was found to be 1448 ± 0.062 nM. Further, inhibition in data set [7] was half-maximal at 39000 ± 2300 nM (IC50). Also, it took 166.4 ± 0.008 nM to reach half-maximal inhibition in data set [9] (IC50). The same compound had an IC50 in [11] of 1305 ± 0.044 nM. Moreover, in data set [12], the IC50 came to 18700 ± 1400 nM and the “SI (Selectivity Index) HCT-116” value stood at 2.08. The compound also returned an IC50 in data set [13] of 589.4 ± 0.022 nM. Moreover, the concentration for half-maximal inhibition (IC50) in [14] was 473.3 ± 0.016 nM. In [15], the midpoint of inhibition, the IC50, lay at 307.2 ± 0.011 nM. Moreover, in data set [16], it took 8310 ± 700 nM to reach half-maximal inhibition (IC50) and the “SI (Selectivity Index) MCF-7” value is reported as 4.70.

Regarding `CN[C@@H]1C[C@H]2O[C@@](C)([C@@H]1OC)n1c3ccccc3c3c4c(c5c6ccccc6n2c5c31)C(=O)NC4` [Saurosporine, staurosporine, reference compound], in data set [2], the “Protein Expression Bax” value is 386.743 ± 15.03 pg/mL and the “Protein Expression Bax (Folds)” value was 5.44 Folds. Further, the “Protein Expression Caspase-3” value in [3] is 541.162 ± 21.02 pg/mL. The “Protein Expression Caspase-3 (Folds)” value in data set [3] (relative to control (1)) is 5.4 Folds. For the same compound, the “Protein Expression Bcl-2” value in data set [10] turned out to be 3.336 ± 0.11 pg/mL.
